Data as given in paper PMC4239610, “A Peptide Derived from G0/G1 Switch Gene 2 Acts as Noncompetitive Inhibitor of Adipose Triglyceride Lipase” (The Journal of Biological Chemistry, 2014).

Experiments:
ATGL = details: cited from earlier work
Excerpt: Extensive research on the physiological role of ATGL has identified complex regulatory mechanisms for its activity on the transcriptional and post-translational level ([12], [13]). Direct protein-protein interaction of ATGL with the protein comparative gene identification 58 (CGI-58) increases ATGL activity up to 20-fold ([14]). Inhibition of ATGL due to direct interaction with the small, 103-amino acid protein G0/G1 switch gene 2 (G0S2) was discovered in 2010 and confirmed using human and murine proteins ([15][–][21]). The highest G0S2 expression is found in adipose tissues, but it is also pr ... || Activation of ATGL by CGI-58 is considered as fasting response upon β-adrenergic stimulation and phosphorylation of PKA ([12]). Recent studies have strengthened the role of G0S2 as the so-called master regulator of basal and stimulated lipolysis ([27]). mRNA levels of G0S2 respond strongly to hormonal stimuli, yet the dose-dependent inhibition of ATGL by G0S2 itself is reported to be independent of phosphorylation events ([18], [20], [21], [28], [29]). Thus, regulation of the expression levels of G0S2, and consequently the protein concentration, resembles a potent mean to regulate lipid mobili ... || Next, we investigated the specificity of the peptide hGW2052. ATGL and HSL together account for more than 95% of intracellular TG hydrolase activity in white adipose tissue (WAT) ([48]). For both enzymes, small molecule inhibitors are available. […] WAT lysates of WT and Atgl-KO mice were tested for TG hydrolase activity in the presence of Atglistatin, Hi 76–0079, and hGW2052. Addition of the ATGL inhibitors hGW2052 or Atglistatin redu ... || (+ 3 further places)

[1] = cited from earlier work
Excerpt: Adipose triglyceride lipase (ATGL) hydrolyzes TGs into diacylglycerols and FAs and is required for efficient intracellular lipolysis ([7]). Global inactivation of ATGL activity leads to massive TG accumulation in all tissues, including the heart of Atgl knock-out mice ([8]). Accordingly, patients with ATGL deficiency suffer from cardiac and skeletal muscle myopathy and require heart transplants at a relatively young age ([9]). However, genetic and small molecule-mediated inactivation of ATGL is also associated with beneficial effects on plasma lipid parameters and insulin sensitivity; Atgl-KO ... || Genetic disruption of Atgl results in severe heart defects due to massive TG accumulation in cardiac muscle ([8], [55]). Thus, the application of a synthetic, competitive ATGL inhibitor, such as Atglistatin, as a therapeutic tool appears limited. […] Th ...

[2] = tested on: TG hydrolase activity of WAT lysates from WT animals; experiment: TG hydrolase activity of WAT lysates of overnight fasted WT mice; format: biochemical, mouse
Experimental: (§1) Adipose tissue samples from overnight fasted wild-type and Atgl-KO mice were washed in PBS (137 mM NaCl, 2.7 mM KCl, 10 mM Na2HPO4, 2 mM KH2PO4) containing 1 mM EDTA and homogenized on ice in sucrose solution (see above) using an Ultra Turrax (IKA, Staufen, Germany).
FIGURE 4.

[3] = tested on: WAT TG hydrolase activity derived from Atgl-KO mice; experiment: TG hydrolase activity of WAT lysates of Atgl-KO mice; format: biochemical, mouse; details: overnight fasted, 1.4 μM hGW2052, 40 μM Atglistatin, Fig. 4A
Experimental: as §1
FIGURE 4.

HSL = details: ref [10], [48], [49]; cited from earlier work
Experimental: Next, we investigated the specificity of the peptide hGW2052. ATGL and HSL together account for more than 95% of intracellular TG hydrolase activity in white adipose tissue (WAT) ([48]). For both enzymes, small molecule inhibitors are available. […] WAT lysates of WT and Atgl-KO mice were tested for TG hydrolase activity in the presence of Atglistatin, Hi 76–0079, and hGW2052. Addition of the ATGL inhibitors hGW2052 or Atglistatin redu ... || To evaluate the specificity of the inhibitory peptide for ATGL, we analyzed the effect of hGW2052 on the activities of phospholipases, intracellular lipases, and extracellular lipases. ATGL belongs to the patatin domain containing family of proteins (PNPLA). […] Although PNPLA family members show high sequence conservation within their common patatin domain, no effects on lysophospholipase activities of PNPLA6 or PNPLA7 could b ...

mATGL [4] = experiment: TG hydrolase activity, E. coli expressed mATGL, CGI-58 activated, hG0S2 truncations (Fig. 1C-E); format: biochemical, mouse; details: mATGL E. coli extract (50 μg), 2.5 μg purified mCGI-58, 30 μg lysate of E. coli expressing hG0S2 variant, [3H]triolein, triplicates
Experimental: (§2) Protein concentrations were determined as described below.
(§3) FIGURE 1. Minimal sequence requirements of human G0S2 for ATGL inhibition. A, graphical representation of full-length and shortened versions of hG0S2, those capable of inhibiting ATGL activity are illustrated in black. The largely hydrophobic sequence stretch from Val-28 to Met-42 is depicted in light gray. B–E, activity assays were performed in the presence of CGI-58 as indicated by an asterisk (ATGL*). G0S2 and variants thereof were expressed in E. coli and added as cell lysates. Overexpressed mATGL from E. coli lysates was used for all assays with the exception of the assay shown in B. B, inhibition of TG hydrolase activity of mATGL containing COS-7 cell extracts by WT and C-terminally truncated hG0S2 variants. C, inhibition of TG hydrolase activity of mATGL by WT and C-terminally truncated hG0S2 variants. D, inhibition of TG hydrolase activity of mATGL by WT hG0S2 and variants with N-terminal deletions. E, effect of different N- and C-terminal truncations in hG0S2 on mATGL activity. The fusion tag smt3 is shown as control.

mATGL [5] = experiment: TG hydrolase activity, COS-7 cell extracts containing mATGL, CGI-58 activated (Fig. 1B); format: biochemical, mouse; details: COS-7 cell extract with mATGL, hG0S2 variants as E. coli cell lysates (30 μg), [3H]triolein substrate, triplicates
Experimental: as §2
Cells were harvested 48 h after transfection. […] Protein concentrations were determined as described below.
as §3

[6] = single administration to mice, ref [10]

CN(C)C(=O)Nc1cccc(-c2ccc(N(C)C)cc2)c1 [Atglistatin]
IC50 for ATGL (in words) (ATGL; Atglistatin elsewhere ref [10]): low micromolar range
dependence of ATGL inhibition on CGI-58 (ATGL; ref [10], [13]): independent of the presence of CGI-58
mode of ATGL inhibition (ATGL; ref [10], [13]): inhibits ATGL in a competitive manner
specificity of inhibition (in words), ATGL (ATGL; ref [10], [48], [49]): act as specific inhibitors for ATGL and HSL, respectively
plasma FA and TG concentrations ([1]; WT mice, ref [8], [10]): reduced plasma FA and TG concentrations
TG accumulation in tissues [1, 6]: TG accumulation in liver but not the heart
tissue accumulation of the inhibitor [1, 6]: accumulation of the inhibitor in liver and adipose tissues
reduction of TG hydrolase activity of WAT lysates ([2]; 40 μM Atglistatin, Fig. 4A): 49%
inhibition of WAT TG hydrolase activity, Atgl-KO (result in words) [3]: Neither hGW2052 nor Atglistatin inhibited WAT TG hydrolase activity derived from Atgl-KO mice

CN(C(=O)n1cncn1)c1ccccc1 [Hi 76-0079, N-methyl-phenyl carbamoyl triazole]
specificity of inhibition (in words), HSL (HSL): act as specific inhibitors for ATGL and HSL, respectively
reduction of TG hydrolase activity of WAT lysates ([2]; 25 μM Hi 76-0079, Fig. 4A): 67%

CCCCCCCC/C=C\CCCCCCCC(=O)SCCNC(=O)CCNC(=O)[C@H](O)C(C)(C)COP(=O)(O)OP(=O)(O)OC[C@H]1O[C@@H](n2cnc3c(N)ncnc32)[C@H](O)[C@@H]1OP(=O)(O)O [oleoyl-CoA]
IC50 (ATGL; ref [13]): 33 µM

hG0S2 Gly-30–Ala-52: N- and C-terminally truncated hG0S2, Gly-30–Ala-52 (GSVLALFGVVLGLMETVCSPFTA; UniProt P27469 30-52, looked up, fragment)
inhibition of TG hydrolase activity (result in words) (mATGL [4]): had lost all inhibitory activity

hG0S2 Leu-10–Ala-52: N- and C-terminally truncated hG0S2, Leu-10–Ala-52 (LAKEMMAQKRKGKMVKLYVLGSVLALFGVVLGLMETVCSPFTA; UniProt P27469 10-52, looked up, fragment)
inhibition of TG hydrolase activity (result in words) (mATGL [4]): fully retained their activity to inhibit ATGL

hG0S2 Lys-20–Met-43: N- and C-terminally truncated hG0S2, Lys-20–Met-43 (KGKMVKLYVLGSVLALFGVVLGLM; UniProt P27469 20-43, looked up, fragment)
inhibition of TG hydrolase activity (result in words) (mATGL [4]): neither hG0S2 Tyr-27–Ala-52 nor hG0S2 Lys-20–Met-43 exhibited full inhibitory capacity
inhibition of TG hydrolase activity (result in words) (mATGL [4]; listed as Lys-20–Met-43): did not result in G0S2 variants that were able to inhibit ATGL efficiently

hG0S2 truncated at residue Leu-40: hG0S2 truncated at residue Leu-40 (C-terminal truncation) (METVQELIPLAKEMMAQKRKGKMVKLYVLGSVLALFGVVL; UniProt P27469 1-40, looked up, fragment)
inhibition of TG hydrolase activity (result in words) (mATGL [5]): Inhibition was significantly reduced

hG0S2_1–43: C-terminally truncated hG0S2 variant Met-1–Met-43 (METVQELIPLAKEMMAQKRKGKMVKLYVLGSVLALFGVVLGLM; UniProt P27469 1-43, looked up, fragment)
inhibition of TG hydrolase activity (result in words) (mATGL [4]): still exerts the full inhibitory effect on ATGL
inhibition of TG hydrolase activity (result in words) (mATGL [4]; listed as Met-1–Met-43): fully able to inhibit ATGL
